“Also recorded” adds a separate entry of the source. Read-outs that look alike come from different tables or passages of the source. One block for each compound: values may come before it.
Experiments:
[1] = test system: human neutrophils; assay: Chemotaxis (migration) of primary human neutrophils in fMLP gradient, μ-Slide Chemotaxis; type: cell-based; settings: 50 nM fMLP gradient; fMLP alone, or with 1.5 mM EGTA, or with 100 μM 8-Ph-ADPR (5); 1 h tracking
[2] = target: T1, human TRPM2 (Homo sapiens, UniProt O94759); assay: Whole-cell patch clamp, antagonism of TRPM2 activation by 100 μM ADPR in HEK293 clone TRPM2#24; type: cell-based; settings: for Mean outward current of 100 μM ADPR (1) infusion: mean ± SEM; for Antagonist activity at TRPM2, in words: analogue concentration not printed in the sentence (most analogues tested at 900 μM)
T1 construct: Specific bands of full length TRPM2 (black arrow) and degradation products (gray arrows) are marked; expressed in transfected cells

[3] = test system: murine neutrophils; parameters: method as in PMID 18025229; settings: cited from earlier work
[4] = test system: TRPM2; parameters: method as in PMID 20650899; settings: even at 60-fold excess of 88 over 1; cited from earlier work
[5] = test system: TRPM2 channel; settings: read-out: TRPM2 inhibition IC50; cited from earlier work
[6] = analogue 900 μM with 100 μM ADPR in pipet solution
[7] = against 100 μM ADPR (1) in pipet solution, outward current at +15 mV, HEK293 clone TRPM2#24, read-out: Antagonism at TRPM2 (IC50)
[8] = analogue 100 μM, equimolar to 100 μM ADPR in pipet solution
[9] = analogue tested at 900 μM against 100 μM ADPR, footnote c: antagonistic effect observed but not statistically significant, read-out: Antagonism at TRPM2 (IC50), result as symbol
[10] = footnote d: could only be tested at 100 μM due to solubility difficulties, 100 μM ADPR, 0.1% DMSO, read-out: Antagonism at TRPM2 (IC50), result as symbol

T1 sequence (O94759 whole entry, the tested form may be a part): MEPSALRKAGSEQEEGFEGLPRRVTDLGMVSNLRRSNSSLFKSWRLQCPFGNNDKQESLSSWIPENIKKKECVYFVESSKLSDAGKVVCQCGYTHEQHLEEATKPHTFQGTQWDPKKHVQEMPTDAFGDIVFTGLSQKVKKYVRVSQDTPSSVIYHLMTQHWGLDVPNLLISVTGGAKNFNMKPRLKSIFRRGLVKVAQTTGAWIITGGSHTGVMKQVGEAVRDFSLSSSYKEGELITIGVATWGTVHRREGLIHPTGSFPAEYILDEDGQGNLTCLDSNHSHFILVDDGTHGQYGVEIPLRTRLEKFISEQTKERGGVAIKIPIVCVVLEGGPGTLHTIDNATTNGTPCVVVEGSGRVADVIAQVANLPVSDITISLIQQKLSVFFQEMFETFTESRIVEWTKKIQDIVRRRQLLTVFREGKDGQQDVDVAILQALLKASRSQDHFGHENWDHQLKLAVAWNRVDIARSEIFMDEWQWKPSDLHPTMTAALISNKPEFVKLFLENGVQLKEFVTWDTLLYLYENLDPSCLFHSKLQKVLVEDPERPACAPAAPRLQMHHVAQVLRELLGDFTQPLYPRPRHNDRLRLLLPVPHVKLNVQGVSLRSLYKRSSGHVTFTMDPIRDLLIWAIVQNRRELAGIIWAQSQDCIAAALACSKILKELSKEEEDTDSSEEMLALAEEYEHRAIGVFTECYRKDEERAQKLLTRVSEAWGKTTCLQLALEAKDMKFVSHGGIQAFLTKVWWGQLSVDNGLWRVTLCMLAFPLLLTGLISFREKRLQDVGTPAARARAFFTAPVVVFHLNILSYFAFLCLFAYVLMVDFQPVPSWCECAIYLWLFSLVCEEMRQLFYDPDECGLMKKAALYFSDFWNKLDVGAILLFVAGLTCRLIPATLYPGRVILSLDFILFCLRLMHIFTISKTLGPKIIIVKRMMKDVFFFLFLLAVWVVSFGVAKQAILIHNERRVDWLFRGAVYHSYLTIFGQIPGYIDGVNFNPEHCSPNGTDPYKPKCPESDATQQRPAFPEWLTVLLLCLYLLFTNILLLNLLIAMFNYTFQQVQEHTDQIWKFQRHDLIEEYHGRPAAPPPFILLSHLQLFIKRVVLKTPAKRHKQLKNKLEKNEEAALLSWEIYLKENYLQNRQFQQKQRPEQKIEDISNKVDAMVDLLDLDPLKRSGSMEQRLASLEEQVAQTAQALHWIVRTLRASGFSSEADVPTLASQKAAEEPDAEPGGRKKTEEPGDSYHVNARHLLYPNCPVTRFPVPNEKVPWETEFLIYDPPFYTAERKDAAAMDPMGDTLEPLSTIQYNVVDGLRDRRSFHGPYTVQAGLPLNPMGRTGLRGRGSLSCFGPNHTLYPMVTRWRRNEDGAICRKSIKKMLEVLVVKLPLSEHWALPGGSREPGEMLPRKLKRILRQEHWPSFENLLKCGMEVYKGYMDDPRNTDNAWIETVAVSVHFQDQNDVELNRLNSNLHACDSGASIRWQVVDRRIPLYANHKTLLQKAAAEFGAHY

Compound: O=C(O)CN(CCOCCOCCN(CC(=O)O)CC(=O)O)CC(=O)O [EGTA, reference compound]
Center of mass ∥ (mean movement in the y direction along fMLP gradient) [1]: 32.6 μm

Compound: Nc1ncnc2c1nc(-c1ccc(CC(N)C(=O)O)cc1)n2[C@@H]1O[C@H](COP(=O)(O)O)[C@@H](O)[C@H]1O (stereo partly shown) [compound 9, 8-(4-(2-Aminopropanoic acid)phenyl)adenosine-5′-monophosphate]
IC50 [2, 7]: 100 to 900 µM
Effect on activation of TRPM2 by ADPR (1), in words [2, 8]: antagonist effect was lost
Effect on activation of TRPM2 by ADPR (1), in words [2, 6]: suppressed activation of TRPM2

Compound: Nc1ncnc2c1ncn2[C@H]1C[C@H](O)[C@@H](COP(=O)(O)O)O1 [compound 31, 2′-deoxy-AMP, reference compound]
Antagonist activity at TRPM2, in words ([2]; 100 μM ADPR): weak antagonist
IC50 [2, 7]: 100 to 900 µM
Effect on activation of TRPM2 by ADPR (1), in words [2, 8]: antagonist effect was lost
Effect on activation of TRPM2 by ADPR (1), in words [2, 6]: suppressed activation of TRPM2

Compound: Nc1ncnc2c1ncn2[C@@H]1O[C@H](CNc2c(NC[C@H]3O[C@@H](O)[C@H](O)[C@@H]3O)c(=O)c2=O)[C@@H](O)[C@H]1O [compound 64, 3-(5′-Amino-5′-deoxyadenosine)-4-(5″-amino-5″-deoxy-β-D-ribofuranose)cyclobut-3-ene-1,2-dione]
IC50 [2, 10]: > 900 µM

Compound: Nc1ncnc2c1ncn2[C@@H]1O[C@H](CNc2c(NC3CCCC3)c(=O)c2=O)[C@@H](O)[C@H]1O [compound 65, 3-(5′-Amino-5′-deoxyadenosine)-4-(cyclopentylamino)-cyclobut-3-ene-1,2-dione]
IC50 [2, 10]: > 900 µM

Compound: CCCCNc1c(NC[C@H]2O[C@@H](n3cnc4c(N)ncnc43)[C@H](O)[C@@H]2O)c(=O)c1=O [compound 66, 3-(5′-Amino-5′-deoxyadenosine)-4-butylamino-cyclobut-3-ene-1,2-dione]
IC50 [2, 10]: > 900 µM

Compound: CCCCCCNc1c(NC[C@H]2O[C@@H](n3cnc4c(N)ncnc43)[C@H](O)[C@@H]2O)c(=O)c1=O [compound 67, 3-(5′-Amino-5′-deoxyadenosine)-4-(hexylamino)cyclobut-3-ene-1,2-dione]
IC50 [2, 10]: > 900 µM

Compound: Nc1ncnc2c1nc(-c1ccccc1)n2[C@@H]1O[C@H](Cn2cc(COC[C@H]3OC(O)[C@H](O)[C@@H]3O)nn2)[C@@H](O)[C@H]1O (stereo partly shown) [compound 73, 1-(5′-Deoxy-8-phenyladenosine)-4-(2″,3″-O-isopropylidene-5″-O-methylribosyl)-1,2,3-triazole]
Effect on activation of TRPM2 by ADPR (1), in words [2, 8]: none of these compounds showed antagonist activity
IC50 [2, 10]: > 900 µM

Compound: Nc1ncnc2c1ncn2[C@@H]1O[C@H](COS(=O)(=O)NC(=O)c2ccccc2O)[C@@H](O)[C@H]1O [compound 76, salicyl-adenosine monosulfamide]
Effect on activation of TRPM2 by ADPR (1), in words [2, 6]: noticeable antagonist activity

Compound: Nc1ncnc2c1nc(-c1ccccc1)n2[C@@H]1O[C@H](COP(=O)(O)OP(=O)(O)OC2CCCC2)[C@@H](O)[C@H]1O [compound 84]
Effect on activation of TRPM2 by ADPR (1), in words [2, 8]: significant antagonist activity

Compound: Nc1ncnc2c1nc(Cl)n2[C@@H]1O[C@H](COP(=O)(O)O)[C@@H](O)[C@H]1O [compound 87, 8-Cl-AMP, reference compound]
Effect on activation of TRPM2 by ADPR (1), in words [2, 6]: no antagonist effect
IC50 [2, 9]: > 900 µM

Compound: Nc1ncnc2c1ncn2[C@@H]1O[C@H](COP(=O)(O)O)[C@@H](O)[C@H]1O [compound 88, adenosine 5′-monophosphate, reference compound]
Antagonist activity at TRPM2, in words ([2]; 100 μM ADPR): no antagonist activity; also recorded: ineffective
Inhibition of ADPR-mediated currents, in words [4]: not shown any inhibition

Compound: copper ions
IC50 [5]: 2.6 µM

More lines, main results first:

Mean outward current of 100 μM ADPR (1) infusion ([2]; control of the set of experiments for 4, n = 16): 1.13 ± 0.14 nA
Mean outward current of 100 μM ADPR (1) infusion ([2]; control of the set of experiments for 5, n = 16): 1.17 ± 0.13 nA
Mean outward current of 100 μM ADPR (1) infusion ([2]; control of the set of experiments for 6, n = 20): 1.70 ± 0.25 nA
Mean outward current of 100 μM ADPR (1) infusion ([2]; control of the set of experiments for 7, n = 22): 1.25 ± 0.14 nA
Mean outward current of 100 μM ADPR (1) infusion ([2]; control of the set of experiments for 84, n = 8): 1.44 ± 0.20 nA
Mean outward current of 100 μM ADPR (1) infusion ([2]; control of the set of experiments for 86, n = 15): 1.23 ± 0.22 nA
Compound: Nc1ncnc2c1ncn2[C@@H]1O[C@H](COP(=O)(O)OP(=O)(O)OC[C@H]2OC(O)[C@H](O)[C@@H]2O)[C@@H](O)[C@H]1O (stereo partly shown) [compound 1, Adenosine 5′-diphosphoribose]

Effect on activation of TRPM2 by ADPR (1), in words [2, 6]: significantly inhibited TRPM2 activation
Compound: Nc1ncnc2c1nc(Br)n2[C@@H]1O[C@H](COP(=O)(O)OP(=O)(O)OC[C@H]2OC(O)[C@H](O)[C@@H]2O)[C@@H](O)[C@H]1O (stereo partly shown) [compound 4, 8-Br-ADPR, reference compound]
Sensitivity of Ca2+ signalling and chemotaxis of murine neutrophils, in words [3]: very sensitive

Antagonist activity at TRPM2, in words ([2]; 100 μM ADPR): did not antagonize activation of TRPM2
IC50 [2, 9]: > 900 µM
Compound: O=c1[nH]cnc2c1ncn2[C@@H]1O[C@H](COP(=O)(O)OP(=O)(O)OC[C@H]2OC(O)[C@H](O)[C@@H]2O)[C@@H](O)[C@H]1O (stereo partly shown) [compound 13, Inosine-5′-diphosphoribose]

Antagonist activity at TRPM2, in words ([2]; 100 μM ADPR): without significant effect
IC50 [2, 9]: > 900 µM
Compound: O=c1[nH]cnc2c1ccn2[C@@H]1O[C@H](COP(=O)(O)OP(=O)(O)OC[C@H]2OC(O)[C@H](O)[C@@H]2O)[C@@H](O)[C@H]1O (stereo partly shown) [compound 14, 7-Deaza-IDPR]

Antagonist activity at TRPM2, in words ([2]; 100 μM ADPR): did not antagonize activation of TRPM2
IC50 [2, 9]: > 900 µM
Compound: Nc1nc(F)nc2c1ncn2[C@@H]1O[C@H](COP(=O)(O)OP(=O)(O)OC[C@H]2OC(O)[C@H](O)[C@@H]2O)[C@@H](O)[C@H]1O (stereo partly shown) [compound 16, 2-F-ADPR]

Antagonism at TRPM2 (IC50) ([2]; against 100 μM ADPR (1) in pipet solution, outward current at +15 mV, HEK293 clone TRPM2#24): upper micromolar range
Effect on activation of TRPM2 by ADPR (1), in words [2, 8]: no inhibition
Effect on activation of TRPM2 by ADPR (1), in words [2, 6]: nearly complete inhibition
Compound: Nc1ncnc2c1ncn2CCCCOP(=O)(O)OP(=O)(O)OC[C@H]1OC(O)[C@H](O)[C@@H]1O (stereo partly shown) [compound 30, 9-(4-Hydroxybutyl)adenine-5′-diphosphoribose]

Antagonist activity at TRPM2, in words ([2]; 100 μM ADPR): inactive
Compound: Nc1ncnc2c1ncn2[C@@H]1O[C@H](COP(=O)(O)OP(=O)(O)O)[C@@H](O)[C@H]1O [compound 44, adenosine 5′-diphosphate, reference compound]

Effect on activation of TRPM2 by ADPR (1), in words [2, 6]: some antagonist effect
IC50 [2, 9]: > 900 µM
Compound: Nc1ncnc2c1ncn2[C@@H]1O[C@H](COP(=O)(O)OP(=O)(O)OP(=O)(O)OC[C@H]2OC(O)[C@H](O)[C@@H]2O)[C@@H](O)[C@H]1O (stereo partly shown) [compound 47, Adenosine Triphosphoribose]

Effect on activation of TRPM2 by ADPR (1), in words [2, 6]: partial inhibition
Compound: Nc1ncnc2c1ncn2[C@@H]1O[C@H](COP(=O)(O)OP(=O)(O)OC2CCCC2)[C@@H](O)[C@H]1O [compound 80, β-Cyclopentyl-ADP]

Effect on activation of TRPM2 by ADPR (1), in words [2, 6]: completely inhibited activation of TRPM2
Compound: Nc1ncnc2c1nc(-c1ccccc1)n2[C@H]1C[C@H](O)[C@@H](COP(=O)(O)OP(=O)(O)OC[C@H]2OC(O)[C@H](O)[C@@H]2O)O1 (stereo partly shown) [compound 86, 8-Phenyl-2′-deoxyadenosine-5′-diphosphoribose]

— publication PMC3873810, “Structure–Activity Relationship of Adenosine 5′-diphosphoribose at the Transient Receptor Potential Melastatin 2 (TRPM2) Channel: Rational Design of Antagonists” (Journal of Medicinal Chemistry, 2013)
